Assay results taken from ChEMBL document CHEMBL1127287, “Synthesis and FKBP binding of small molecule mimics of the tricarbonyl region of FK506” (Bioorg Med Chem Lett, 1994).

Legend:
[1] = biological target: T1, Peptidyl-prolyl cis-trans isomerase FKBP1A (Homo sapiens, UniProt P62942); assay: Percent inhibition towards recombinant FK506 binding protein 12 to determine the FKBP binding property at a concentration of 100 uM
[2] = biological target: T1, Peptidyl-prolyl cis-trans isomerase FKBP1A; assay: Binding affinity towards recombinant FK506 binding protein 12 to determine the FKBP binding property of the compound

T1 sequence (P62942 whole entry): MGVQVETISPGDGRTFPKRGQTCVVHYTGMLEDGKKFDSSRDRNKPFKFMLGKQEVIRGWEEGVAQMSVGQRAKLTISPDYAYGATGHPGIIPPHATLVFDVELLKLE

Row | inhibition [1] [%] | IC50 [2] [µM] | Structure (SMILES)
1 | 90 | 16 | COc1ccc(CCCCOC(=O)[C@@H]2CCCCN2C(=O)C(=O)c2cc(OC)c(OC)c(OC)c2)cc1
2 | 52 |  | COc1ccc(CCCCOC(=O)[C@@H]2CCCCN2C(=O)Cc2cc(OC)c(OC)c(OC)c2)cc1
3 | 47 |  | COc1ccc(CCCCOC(=O)[C@@H]2CCCCN2C(=O)C(C)c2cc(OC)c(OC)c(OC)c2)cc1 (stereo not given in full)
4 | 39 |  | C=C(C(=O)N1CCCC[C@H]1C(=O)OCCCCc1ccc(OC)cc1)c1cc(OC)c(OC)c(OC)c1
